Measurements as given in article PMC5831858, “Pharmacological characterisation of CR6086, a potent prostaglandin E2 receptor 4 antagonist, as a new potential disease-modifying anti-rheumatic drug” (Arthritis Research & Therapy, 2018).
Marks after values point to notes of the source that are not given here.

What was measured:
IL-6 gene expression = IL-6 gene expression in THP-1 cells differentiated to macrophages; assay type: cell-based; details: Homo sapiens, LPS 10 ng/ml + PGE2 10 nM, read-out: IC50 transcription of IL-6
Method: The human monocyte cell line THP-1 was obtained from the ATCC and was grown according to the instructions provided. THP-1 monocytic cells were differentiated to macrophages with 100 nM phorbol 12-myristate 13-acetate (PMA) for 4 days. Macrophages were then stimulated with lipopolysaccharide (LPS) 10 ng/ml and PGE2 10 nM for 3 or 24 h. Total RNA was purified using the ABI Prism 6100 Nucleic Acid PrepStation (Applied Biosystems, Foster City, CA, USA) and retrotranscribed using the High-Capacity cDNA Reverse Transcription Kit (Thermo Fisher Scientific). RT-PCR analysis was performed using the Applied Biosystems 7500 Fast Real-Time PCR System using specific TaqMan assays (number Hs00174131_m1 for IL-6, number Hs00900054_m1 for vascular endothelial growth factor A [VEGFA]; Thermo Fisher Scientific) and, as an endogenous control, the 18S Pre-Developed TaqMan® Assay (Thermo Fisher Scientific). The data analysis, with normalisation on 18S amplified values, was done following Thermo Fisher Scientific’s specific instructions for gene expression relative quantification. All individual data are the result of at least three different analyses for each sample.

IL-23 release = IL-23 release from human dendritic cells; assay type: cell-based; details: Dendritic cell, PGE2-stimulated, 24 h
Method: PBMCs were purified using Histopaque (Sigma-Aldrich, St. Louis, MO, USA). CD14^+ cells were positively selected in a magnetic field (magnetic-activated cell sorting [MACS]; Miltenyi Biotec, Bergisch Gladbach, Germany). Purified CD14^+ cells were subsequently cultured for 7 days in differentiation medium (RPMI 1640 + 10% FBS, granulocyte-macrophage colony-stimulating factor 50 ng/ml and IL-4 100 ng/ml) and then stimulated with LPS (10 ng/ml), R848 2.5 μg/ml and PGE2 10 nM for 24 h in the presence of CR6086 (0.01–30 μM) or naproxen (1–30 μM). IL-23 release was measured by enzyme-linked immunosorbent assay (ELISA) (R&D Systems, Minneapolis, MN, USA).

[1] = tested on: Cl^- channel (GABA-gated); assay: Ion channel Cl- (GABA-gated) binding; details: [^35S]TBPS, Rat cerebral cortex
COX-2 = target: T1, COX-2 (Homo sapiens, UniProt P35354); assay: Cyclooxygenase COX-2 enzymatic activity; assay type: biochemical; details: Sf9 cells, read-out: CR6086 Activity at 10µM
T1 construct: host or cells: Sf9 cells
T1 sequence (P35354 18-604): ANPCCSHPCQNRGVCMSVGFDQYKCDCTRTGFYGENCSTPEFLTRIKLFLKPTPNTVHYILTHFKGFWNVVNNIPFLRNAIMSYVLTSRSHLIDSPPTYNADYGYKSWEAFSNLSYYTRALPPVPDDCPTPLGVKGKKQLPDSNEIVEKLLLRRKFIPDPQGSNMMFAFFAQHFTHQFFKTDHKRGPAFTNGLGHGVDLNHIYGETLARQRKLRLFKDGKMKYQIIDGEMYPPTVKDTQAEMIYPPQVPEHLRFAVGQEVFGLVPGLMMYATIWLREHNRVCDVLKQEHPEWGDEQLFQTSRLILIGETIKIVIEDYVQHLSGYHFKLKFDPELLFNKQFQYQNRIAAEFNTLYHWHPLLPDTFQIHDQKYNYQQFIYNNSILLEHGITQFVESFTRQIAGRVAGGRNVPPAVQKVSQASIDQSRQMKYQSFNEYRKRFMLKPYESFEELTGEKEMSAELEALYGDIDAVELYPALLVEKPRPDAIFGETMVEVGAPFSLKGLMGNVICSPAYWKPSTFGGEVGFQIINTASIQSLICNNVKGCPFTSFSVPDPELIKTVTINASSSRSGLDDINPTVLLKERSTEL

M2 = M2 (Homo sapiens, UniProt P08172); assay: Muscarinic acetylcholine receptor M2 binding; details: [^3H]AF-DX 384, Human recombinant CHO cells, read-out: CR6086 Activity at 10µM
Chain of M2 (P08172 whole entry): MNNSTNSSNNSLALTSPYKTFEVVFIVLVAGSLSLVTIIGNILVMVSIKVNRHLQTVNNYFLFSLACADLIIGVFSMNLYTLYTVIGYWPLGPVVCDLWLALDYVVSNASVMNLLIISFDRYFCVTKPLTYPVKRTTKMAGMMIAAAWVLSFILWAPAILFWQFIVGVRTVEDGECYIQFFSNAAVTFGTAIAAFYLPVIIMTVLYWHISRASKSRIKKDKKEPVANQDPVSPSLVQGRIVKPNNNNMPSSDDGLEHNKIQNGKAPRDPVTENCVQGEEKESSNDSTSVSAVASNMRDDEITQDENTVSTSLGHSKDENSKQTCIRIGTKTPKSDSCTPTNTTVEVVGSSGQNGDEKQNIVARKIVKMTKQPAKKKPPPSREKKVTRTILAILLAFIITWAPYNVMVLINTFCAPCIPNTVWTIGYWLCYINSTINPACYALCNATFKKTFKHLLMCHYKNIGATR

CysLT1 (Cys-LTs) = CysLT1 (Cys-LTs) (Homo sapiens, UniProt Q9Y271); assay: Eicosanoid receptor CysLT1 binding; details: [^3H]LTD4, HEK-293 cells, read-out: CR6086 Activity at 10µM
Chain of CysLT1 (Cys-LTs) (Q9Y271 whole entry, species assumed): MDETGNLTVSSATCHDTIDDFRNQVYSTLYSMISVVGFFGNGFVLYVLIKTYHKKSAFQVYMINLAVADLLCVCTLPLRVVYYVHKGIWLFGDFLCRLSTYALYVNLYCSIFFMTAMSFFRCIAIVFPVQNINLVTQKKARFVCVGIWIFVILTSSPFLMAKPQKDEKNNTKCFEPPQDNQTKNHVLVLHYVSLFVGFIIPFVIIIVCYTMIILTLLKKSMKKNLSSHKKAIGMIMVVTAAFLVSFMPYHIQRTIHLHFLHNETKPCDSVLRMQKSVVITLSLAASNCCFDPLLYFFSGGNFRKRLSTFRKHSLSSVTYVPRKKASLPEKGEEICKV

[2] = tested on: arthritic mice (collagen-induced arthritis model); assay: FACS analysis of cell populations in the joint, CIA mice; assay type: in vivo, mouse; details: CR6086 60 mg/kg, naproxen 60 mg/kg, etanercept 10 mg/kg, mean ± SEM
Method: (§1) In a first study, mice were randomised into the following treatment groups: vehicle, 30 mg/kg CR6086, 60 mg/kg CR6086, 60 mg/kg naproxen and 10 mg/kg etanercept. Animals received the test drugs for 10 days. CR6086 and naproxen were administered orally once daily, whereas etanercept was administered intraperitoneally every other day. Animals treated with vehicle, 60 mg/kg CR6086, naproxen and etanercept were additionally analysed for the proportion of populations of Th17 cells, Th1 cells, regulatory T cells, B cells, macrophages, neutrophils and dendritic cells by fluorescence-activated cell sorting (FACS) after collection of blood, draining lymph nodes and joints.

[3] = tested on: arthritic mice (collagen-induced arthritis model); assay: CIA in mice, first study: clinical score and paw swelling; assay type: in vivo, mouse; details: 10 days; CR6086 30 and 60 mg/kg, naproxen 60 mg/kg oral once daily; etanercept 10 mg/kg i.p. every other day
Method: Male DBA/1 mice were immunised by intradermal injection at the base of the tail with an emulsion of 200 μg of bCII in CFA containing 3 mg/ml Mycobacterium tuberculosis. Non-immunised mice served as the negative control of disease. Animals were monitored by visual inspection for appearance of peripheral oedema. […] Upon onset, animals were recruited and randomised. Recruitment was given a cut-off at day 40. Upon recruitment, arthritis clinical score was assigned, and oedema was measured via caliper.
as §1
Oedema measurement was performed every day before treatment, and all animals were blindly scored for clinical signs of arthritis as follows: 0 = normal; 1 = slight swelling and/or erythema; 2 = pronounced oedematous swelling; and 3 = ankyloses and severe swelling. A score of 0.5 was given to swollen toe/toes or when inflammation was localised to one part of the foot. Each limb was measured separately, with a final score based on the sum of the scores from all four paws.

M3 = M3 (Homo sapiens, UniProt P20309); assay: Muscarinic acetylcholine receptor M3 binding; details: [^3H]4-DAMP, Human recombinant CHO cells, read-out: CR6086 Activity at 10µM
Chain of M3 (P20309 whole entry): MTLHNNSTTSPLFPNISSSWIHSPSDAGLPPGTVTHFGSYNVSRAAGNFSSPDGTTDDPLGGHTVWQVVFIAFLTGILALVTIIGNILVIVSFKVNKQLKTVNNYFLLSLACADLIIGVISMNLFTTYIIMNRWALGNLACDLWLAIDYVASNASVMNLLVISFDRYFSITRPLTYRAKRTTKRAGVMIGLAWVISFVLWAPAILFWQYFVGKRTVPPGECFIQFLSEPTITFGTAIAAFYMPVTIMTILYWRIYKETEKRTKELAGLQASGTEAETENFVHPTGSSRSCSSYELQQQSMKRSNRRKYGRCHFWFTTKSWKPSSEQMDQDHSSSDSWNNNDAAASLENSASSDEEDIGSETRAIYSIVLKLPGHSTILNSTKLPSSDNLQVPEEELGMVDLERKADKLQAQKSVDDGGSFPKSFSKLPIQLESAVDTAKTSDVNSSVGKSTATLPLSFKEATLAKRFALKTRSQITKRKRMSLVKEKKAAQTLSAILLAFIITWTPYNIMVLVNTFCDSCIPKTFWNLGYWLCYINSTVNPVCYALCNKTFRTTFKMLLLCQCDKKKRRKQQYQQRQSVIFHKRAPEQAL

O=C([O-])c1ccc(C2(NC(=O)[C@H]3CC4(CCN3Cc3ccc(C(F)(F)F)cc3)CC4)CC2)cc1.[Na+] [CR6086, Sodium (R)-4-(1-(6-(4-(trifluoromethyl)benzyl)-6-azaspiro[2.5]octane-5-carboxamido)cyclopropyl)benzoate]
IC50 (IL-6 gene expression): 70 nM
IC50 (IL-23 release): 608 nM
CR6086 Activity at 10µM [1]: IN (IN = < 20% displacement or inhibition (all tables))
inhibition at 10 µM (COX-2): < 20%
inhibition at 10 µM (M2): < 20%
inhibition at 10 µM (CysLT1 (Cys-LTs)): < 20%
B cells, Percentage of total cells [2]: 6.65 ± 0.72%
Dendritic cells, Percentage of total cells [2]: 1.72 ± 0.44%
Macrophages, Percentage of total cells [2]: 11.14 ± 2.93^a %
Neutrophils, Percentage of total cells [2]: 9.98 ± 2.89^a %
Th1, Percentage of total cells [2]: 0.14 ± 0.03^b %
Th17, Percentage of total cells [2]: 0.06 ± 0.01^b %
Treg, Percentage of total cells [2]: 0.38 ± 0.12%
effect on disease parameters (visual clinical score, paw swelling) vs vehicle [3]: significantly improved
inhibition at 10 µM (M3): < 20%
